One may read the IC50 as the midpoint of a concentration-inhibition curve.

Drawing on US10660877B2 (BRISTOL-MYERS SQUIBB COMPANY, priority 2016, dated 2020), this text covers IC50 for 18 compounds.

The target of one assay is human TLR8 (Homo sapiens (Human), UniProt Q9NR97). Kind of assay: TLR8 inhibition reporter assay (HEK-Blue cells, SEAP reporter, R848 stimulation).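 Also: compounds tested from 0.05 nM to 50 µM, 22 h at 37 °C, SEAP measured with HEK-Blue Detection, inhibition relative to agonist plus DMSO versus a known inhibitor.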 In general terms: In a reporter assay the amount or activity of a reporter protein is the signal.
A further assay addresses human TLR7 (Homo sapiens (Human), UniProt Q9NYK1). Kind of assay: TLR7 inhibition reporter assay (HEK-Blue cells, SEAP reporter, gardiquimod stimulation). The class given is cell-based. The following applies: HEK-Blue cells overexpressing human TLR7, gardiquimod 7.5 μM.
In a further assay the target is human TLR9 (Homo sapiens (Human), UniProt Q9NR96). Kind of assay: TLR9 inhibition reporter assay (HEK-Blue cells, SEAP reporter, ODN2006 stimulation).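 Also: compounds tested over 0.05 nM to 50 µM, 22 h incubation, inhibition taken as SEAP signal drop from agonist plus DMSO wells toward a known inhibitor control.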
The mark [1] stands for this setting: read-out: TLR8 IC50, HEK-Blue cells overexpressing human TLR8, R848 15.9 μM.
Setting [2] is: read-out: TLR9 IC50, HEK-Blue cells overexpressing human TLR9, ODN2006 5 nM.
The mark [3] stands for this setting: TLR8 IC50, HEK-Blue cells overexpressing human TLR8, R848 15.9 μM.
Setting [4] is: TLR9 IC50, HEK-Blue cells overexpressing human TLR9, ODN2006 5 nM.

Structures are written as SMILES. Where two headings read alike, the source gives them in different places.

Chain of human TLR7 (Q9NYK1 27-1049): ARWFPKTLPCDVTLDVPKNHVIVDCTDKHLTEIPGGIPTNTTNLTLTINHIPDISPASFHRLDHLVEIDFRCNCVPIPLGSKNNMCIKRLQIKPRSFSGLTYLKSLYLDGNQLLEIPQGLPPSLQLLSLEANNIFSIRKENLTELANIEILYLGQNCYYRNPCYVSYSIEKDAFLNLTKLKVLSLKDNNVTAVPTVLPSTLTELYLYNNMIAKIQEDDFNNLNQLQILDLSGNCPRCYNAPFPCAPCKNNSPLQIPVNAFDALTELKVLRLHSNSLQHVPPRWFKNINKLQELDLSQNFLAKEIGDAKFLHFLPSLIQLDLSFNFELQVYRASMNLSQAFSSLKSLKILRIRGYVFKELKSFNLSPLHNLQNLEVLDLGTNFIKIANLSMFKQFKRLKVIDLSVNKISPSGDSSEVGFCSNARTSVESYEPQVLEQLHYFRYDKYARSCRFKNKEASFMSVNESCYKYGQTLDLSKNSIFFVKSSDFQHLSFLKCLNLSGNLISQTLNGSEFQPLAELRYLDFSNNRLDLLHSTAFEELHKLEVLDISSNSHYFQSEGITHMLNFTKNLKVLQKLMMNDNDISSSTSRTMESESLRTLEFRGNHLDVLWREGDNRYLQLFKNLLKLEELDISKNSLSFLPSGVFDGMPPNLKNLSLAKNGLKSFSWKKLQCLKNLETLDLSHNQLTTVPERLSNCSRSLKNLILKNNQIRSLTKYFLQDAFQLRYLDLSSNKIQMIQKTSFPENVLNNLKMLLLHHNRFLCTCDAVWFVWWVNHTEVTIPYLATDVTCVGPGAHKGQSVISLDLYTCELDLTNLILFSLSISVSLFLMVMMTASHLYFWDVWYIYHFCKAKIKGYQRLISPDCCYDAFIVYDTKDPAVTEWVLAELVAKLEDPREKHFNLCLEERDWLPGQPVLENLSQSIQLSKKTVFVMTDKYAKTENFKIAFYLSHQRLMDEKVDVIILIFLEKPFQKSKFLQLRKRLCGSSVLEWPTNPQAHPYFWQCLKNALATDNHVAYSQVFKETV
Chain of human TLR8 (Q9NR97 27-1041): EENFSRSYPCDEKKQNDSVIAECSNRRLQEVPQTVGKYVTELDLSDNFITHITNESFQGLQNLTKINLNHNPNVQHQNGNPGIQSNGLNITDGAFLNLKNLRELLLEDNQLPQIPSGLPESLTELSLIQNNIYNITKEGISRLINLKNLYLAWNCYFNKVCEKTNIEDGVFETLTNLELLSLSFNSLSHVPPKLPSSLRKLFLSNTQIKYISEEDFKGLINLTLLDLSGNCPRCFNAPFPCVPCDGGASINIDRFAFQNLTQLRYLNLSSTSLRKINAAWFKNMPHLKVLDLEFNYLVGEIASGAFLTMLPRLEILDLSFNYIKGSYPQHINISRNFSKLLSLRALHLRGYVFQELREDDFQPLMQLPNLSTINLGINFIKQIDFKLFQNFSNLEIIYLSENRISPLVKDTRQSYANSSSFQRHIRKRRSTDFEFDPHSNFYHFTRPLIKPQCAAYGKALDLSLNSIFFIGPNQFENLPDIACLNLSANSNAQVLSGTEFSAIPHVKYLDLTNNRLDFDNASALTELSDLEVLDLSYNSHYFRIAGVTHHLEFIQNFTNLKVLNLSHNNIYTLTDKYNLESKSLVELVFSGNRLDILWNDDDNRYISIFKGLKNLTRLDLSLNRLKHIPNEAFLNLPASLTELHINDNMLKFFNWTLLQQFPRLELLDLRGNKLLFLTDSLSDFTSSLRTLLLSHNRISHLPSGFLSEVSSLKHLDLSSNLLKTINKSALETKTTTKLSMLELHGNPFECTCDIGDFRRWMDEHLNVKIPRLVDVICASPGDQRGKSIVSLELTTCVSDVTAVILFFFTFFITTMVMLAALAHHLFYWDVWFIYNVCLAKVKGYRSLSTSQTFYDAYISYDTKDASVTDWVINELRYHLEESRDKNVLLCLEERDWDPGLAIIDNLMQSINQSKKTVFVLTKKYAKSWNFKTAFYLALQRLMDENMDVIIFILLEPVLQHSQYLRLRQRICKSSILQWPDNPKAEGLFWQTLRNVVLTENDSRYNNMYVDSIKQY
Chain of human TLR9 (Q9NR96 26-1032): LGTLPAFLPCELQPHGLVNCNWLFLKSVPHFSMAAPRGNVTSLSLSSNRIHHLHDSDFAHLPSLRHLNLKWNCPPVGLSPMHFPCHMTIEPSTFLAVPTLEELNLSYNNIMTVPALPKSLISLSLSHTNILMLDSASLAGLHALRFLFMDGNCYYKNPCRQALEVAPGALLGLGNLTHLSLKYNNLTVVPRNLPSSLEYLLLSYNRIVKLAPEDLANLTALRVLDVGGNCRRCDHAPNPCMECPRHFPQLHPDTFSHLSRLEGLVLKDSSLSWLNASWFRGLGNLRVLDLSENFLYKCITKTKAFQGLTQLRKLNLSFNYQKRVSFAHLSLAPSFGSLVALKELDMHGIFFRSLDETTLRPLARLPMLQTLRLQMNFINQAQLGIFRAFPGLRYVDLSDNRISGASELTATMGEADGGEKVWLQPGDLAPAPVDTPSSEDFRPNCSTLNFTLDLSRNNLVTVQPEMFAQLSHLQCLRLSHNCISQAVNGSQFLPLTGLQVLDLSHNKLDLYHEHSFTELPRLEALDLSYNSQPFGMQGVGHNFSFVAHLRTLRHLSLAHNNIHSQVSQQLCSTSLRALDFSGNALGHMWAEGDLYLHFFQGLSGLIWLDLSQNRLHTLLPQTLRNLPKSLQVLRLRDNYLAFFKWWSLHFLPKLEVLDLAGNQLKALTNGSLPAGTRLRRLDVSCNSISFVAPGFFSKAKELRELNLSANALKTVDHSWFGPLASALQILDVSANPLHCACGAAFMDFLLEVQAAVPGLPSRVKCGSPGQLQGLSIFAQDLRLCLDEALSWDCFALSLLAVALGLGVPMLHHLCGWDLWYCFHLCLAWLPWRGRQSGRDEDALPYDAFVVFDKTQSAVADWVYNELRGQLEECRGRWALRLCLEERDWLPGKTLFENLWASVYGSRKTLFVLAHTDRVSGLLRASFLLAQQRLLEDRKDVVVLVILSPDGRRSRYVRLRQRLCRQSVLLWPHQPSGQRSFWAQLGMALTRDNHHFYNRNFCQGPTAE

`Cc1cc(-c2[nH]c3ccc(C4CCN(CC(=O)NCC5CC5)CC4)cc3c2C(C)C)cc(C)n1` [Example 223, N-(cyclopropylmethyl)-2-(4-(2-(2,6-dimethylpyridin-4-yl)-3-isopropyl-1H-indol-5-yl)piperidin-1-yl)acetamide]: the IC50 at human TLR8 (setting [1]) is 10.7 nM; at human TLR7 it was 3.7 nM; at human TLR9 (setting [2]) it was 1160 nM.

Regarding `Cc1cc(-c2[nH]c3ccc(C4CCN(CC(=O)NC56CC7CC(CC(C7)C5)C6)CC4)cc3c2C(C)C)cc(C)n1` [Example 224, N-(adamantan-1-yl)-2-(4-(2-(2,6-dimethylpyridin-4-yl)-3-isopropyl-1H-indol-5-yl)piperidin-1-yl)acetamide], the IC50 at human TLR8 (setting [1]) turned out to be 820 nM; against human TLR7 it was 286 nM; on human TLR9 (setting [2]), 4130 nM.

For the compound `Cc1cc(-c2[nH]c3ccc(C4CCN(CC(=O)NC56C[C@@H]7C[C@@H](CC(O)(C7)C5)C6)CC4)cc3c2C(C)C)cc(C)n1` [Example 225, 2-(4-(2-(2,6-dimethylpyridin-4-yl)-3-isopropyl-1H-indol-5-yl)piperidin-1-yl)-N-((1r,3 s,5R,7S)-3-hydroxyadamantan-1-yl)acetamide], the IC50 at human TLR8 (setting [1]) came to 26.8 nM; at human TLR7 it was 11.6 nM; on human TLR9 (setting [2]), 651 nM.

With `COC1CN(C(=O)CN2CCC(c3ccc4[nH]c(-c5cc(C)nc(C)c5)c(C(C)C)c4c3)CC2)C1` [Example 226, 2-(4-(2-(2,6-dimethylpyridin-4-yl)-3-isopropyl-1H-indol-5-yl)piperidin-1-yl)-1-(3-methoxyazetidin-1-yl)ethan-1-one], the IC50 on human TLR8 (setting [1]) is 12.4 nM; against human TLR7, 5.4 nM; on human TLR9 (setting [2]), 759 nM.

For the compound `Cc1cc(-c2[nH]c3ccc(C4CCN(CC(=O)N5CCC5)CC4)cc3c2C(C)C)cc(C)n1` [Example 227, 1-(azetidin-1-yl)-2-(4-(2-(2,6-dimethylpyridin-4-yl)-3-isopropyl-1H-indol-5-yl)piperidin-1-yl)ethan-1-one], the IC50 turned out to be 9.1 nM at human TLR8 (setting [1]), 3.8 nM against human TLR7 and 1500 nM on human TLR9 (setting [2]).

Turning to `CCN(CC)C(=O)CN1CCC(c2ccc3[nH]c(-c4cc(C)nc(C)c4)c(C(C)C)c3c2)CC1` [Example 228, 2-(4-(2-(2,6-dimethylpyridin-4-yl)-3-isopropyl-1H-indol-5-yl)piperidin-1-yl)-N,N-diethylacetamide], the IC50 on human TLR8 (setting [1]) is 28.2 nM; at human TLR7, 11.5 nM; on human TLR9 (setting [2]) it was 1110 nM.

For the compound `Cc1cc(-c2[nH]c3ccc(C4CCN(CC(=O)N5CC(O)C5)CC4)cc3c2C(C)C)cc(C)n1` [Example 229, 2-(4-(2-(2,6-dimethylpyridin-4-yl)-3-isopropyl-1H-indol-5-yl)piperidin-1-yl)-1-(3-hydroxyazetidin-1-yl)ethan-1-one], the IC50 on human TLR8 (setting [3]) amounted to 7.1 nM; on human TLR7, 6.4 nM; against human TLR9 (setting [4]), 165 nM.

As for `Cc1cc(-c2[nH]c3ccc(C4CCN(CC(=O)N5CCC(O)CC5)CC4)cc3c2C(C)C)cc(C)n1` [Example 230, 2-(4-(2-(2,6-dimethylpyridin-4-yl)-3-isopropyl-1H-indol-5-yl)piperidin-1-yl)-1-(4-hydroxypiperidin-1-yl)ethan-1-one], the IC50 on human TLR8 (setting [1]) was determined as 17 nM; at human TLR7, 4 nM; on human TLR9 (setting [2]), 74 nM.

Take `COCCNC(=O)CN1CCC(c2ccc3[nH]c(-c4cc(C)nc(C)c4)c(C(C)C)c3c2)CC1` [Example 231, 2-(4-(2-(2,6-dimethylpyridin-4-yl)-3-isopropyl-1H-indol-5-yl)piperidin-1-yl)-N-(2-methoxyethyl)acetamide]: the half-maximal inhibitory concentration (IC50) on human TLR8 (setting [1]) worked out at 10.1 nM; against human TLR7, 8.6 nM; at human TLR9 (setting [2]), 1130 nM.

With `Cc1cc(-c2[nH]c3ccc(C4CCN(CC(=O)N5CCOCC5)CC4)cc3c2C(C)C)cc(C)n1` [Example 232, 2-(4-(2-(2,6-dimethylpyridin-4-yl)-3-isopropyl-1H-indol-5-yl)piperidin-1-yl)-1-morpholinoethan-1-one], the figures for the IC50 against human TLR8 (setting [3]), against human TLR7 and at human TLR9 (setting [4]) were 7.7 nM, 3.6 nM and 627 nM, respectively.

Take `Cc1cc(-c2[nH]c3ccc(C4CCN(CC(=O)NC5(C)COC5)CC4)cc3c2C(C)C)cc(C)n1` [Example 233, 2-(4-(2-(2,6-dimethylpyridin-4-yl)-3-isopropyl-1H-indol-5-yl)piperidin-1-yl)-N-(3-methyloxetan-3-yl)acetamide]: the IC50 is 6.4 nM at human TLR8 (setting [1]), 6.3 nM against human TLR7 and 970 nM at human TLR9 (setting [2]).

Turning to `CCC(C)NC(=O)CN1CCC(c2ccc3[nH]c(-c4cc(C)nc(C)c4)c(C(C)C)c3c2)CC1` (stereo not drawn) [Example 234, N-(sec-butyl)-2-(4-(2-(2,6-dimethylpyridin-4-yl)-3-isopropyl-1H-indol-5-yl)piperidin-1-yl)acetamide], the 50% inhibitory concentration (IC50) on human TLR8 (setting [1]) was 24.9 nM; against human TLR7, 11.4 nM; on human TLR9 (setting [2]), 1720 nM.

Take `CCNC(=O)CN1CCC(c2ccc3[nH]c(-c4cc(C)nc(C)c4)c(C(C)C)c3c2)CC1` [Example 235, 2-(4-(2-(2,6-dimethylpyridin-4-yl)-3-isopropyl-1H-indol-5-yl)piperidin-1-yl)-N-ethylacetamide]: the results for the 50% inhibitory concentration (IC50) at human TLR8 (setting [3]), at human TLR7 and against human TLR9 (setting [4]) were 14.1 nM, 5.2 nM and 965 nM, respectively.

For the compound `Cc1cc(-c2[nH]c3ccc(C4CCN(CC(=O)NCCC(C)(C)C)CC4)cc3c2C(C)C)cc(C)n1` [Example 236, N-(3,3-dimethylbutyl)-2-(4-(2-(2,6-dimethylpyridin-4-yl)-3-isopropyl-1H-indol-5-yl)piperidin-1-yl)acetamide], the results for the concentration for half-maximal inhibition (IC50) at human TLR8 (setting [1]), on human TLR7 and at human TLR9 (setting [2]) were 67.2 nM, 46.5 nM and 2090 nM, respectively.

With `Cc1cc(-c2[nH]c3ccc(C4CCN(CC(=O)NCCC(C)C)CC4)cc3c2C(C)C)cc(C)n1` [Example 237, 2-(4-(2-(2,6-dimethylpyridin-4-yl)-3-isopropyl-1H-indol-5-yl)piperidin-1-yl)-N-isopentylacetamide], the IC50 at human TLR8 (setting [1]) came to 51.1 nM; against human TLR7, 24.9 nM; at human TLR9 (setting [2]), 1890 nM.

On to `CCCNC(=O)CN1CCC(c2ccc3[nH]c(-c4cc(C)nc(C)c4)c(C(C)C)c3c2)CC1` [Example 238, 2-(4-(2-(2,6-dimethylpyridin-4-yl)-3-isopropyl-1H-indol-5-yl)piperidin-1-yl)-N-propylacetamide], for which the IC50 on human TLR8 (setting [1]) was 10.2 nM; on human TLR7, 5.2 nM; at human TLR9 (setting [2]), 942 nM.

For the compound `Cc1cc(-c2[nH]c3ccc(C4CCN(CC(=O)NCC#N)CC4)cc3c2C(C)C)cc(C)n1` [Example 239, N-(cyanomethyl)-2-(4-(2-(2,6-dimethylpyridin-4-yl)-3-isopropyl-1H-indol-5-yl)piperidin-1-yl)acetamide], the 50% inhibitory concentration (IC50) on human TLR8 (setting [1]) turned out to be 8.9 nM; against human TLR7 it was 6.7 nM; at human TLR9 (setting [2]), 1590 nM.

As to `CCOCCNC(=O)CN1CCC(c2ccc3[nH]c(-c4cc(C)nc(C)c4)c(C(C)C)c3c2)CC1` [Example 240, 2-(4-(2-(2,6-dimethylpyridin-4-yl)-3-isopropyl-1H-indol-5-yl)piperidin-1-yl)-N-(2-ethoxyethyl)acetamide], the results for the IC50 on human TLR8 (setting [3]), against human TLR7 and against human TLR9 (setting [4]) were 7.9 nM, 8.3 nM and 1090 nM, respectively.
